Measurements reported in patent US11999727B2 (Tango Therapeutics, Inc., priority 2020, dated 2024).

Experiments:
[1] = tested on: HAP1 MTAP-intact cell line; assay: SDMA in-cell western assay, HAP1 MTAP-intact; format: cell-based; conditions: Homo sapiens, HAP1, SDMA in-cell western, HAP1 MTAP-intact; read-out: MTAP HAP1 intact IC50
Summary of the method: (§1)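 MTAP-null vs endogenous-MTAP HAP1 isogenic cells; in-cell western SDMA readout; IC50 per line.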

PRMT5 [2] = biological target: T1, PRMT5 (Homo sapiens, UniProt O14744); assay: PRMT5 biochemical IC50 assay with SAM as cofactor; conditions: PRMT5, SAM as cofactor; read-out: SAM IC50
T1 construct: purchased Viva (custom protein)
T1 sequence (O14744 whole entry): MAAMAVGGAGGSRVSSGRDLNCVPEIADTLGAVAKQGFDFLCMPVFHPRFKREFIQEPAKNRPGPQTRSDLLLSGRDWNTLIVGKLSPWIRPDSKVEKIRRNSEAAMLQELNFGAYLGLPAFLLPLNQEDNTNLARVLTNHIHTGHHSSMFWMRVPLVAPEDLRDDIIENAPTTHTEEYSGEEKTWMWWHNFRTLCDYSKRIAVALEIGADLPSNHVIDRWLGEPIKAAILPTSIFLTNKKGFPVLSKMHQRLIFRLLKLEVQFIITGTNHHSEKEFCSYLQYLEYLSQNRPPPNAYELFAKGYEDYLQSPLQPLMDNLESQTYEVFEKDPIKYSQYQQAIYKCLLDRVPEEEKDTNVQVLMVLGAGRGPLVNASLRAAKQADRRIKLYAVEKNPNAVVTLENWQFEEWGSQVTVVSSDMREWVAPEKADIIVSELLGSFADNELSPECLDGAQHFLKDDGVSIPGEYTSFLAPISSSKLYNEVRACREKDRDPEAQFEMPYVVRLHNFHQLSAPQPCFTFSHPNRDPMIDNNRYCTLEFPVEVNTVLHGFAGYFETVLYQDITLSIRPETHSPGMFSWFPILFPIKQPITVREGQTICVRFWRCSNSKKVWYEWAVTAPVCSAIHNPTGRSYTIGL
T1 sequence (Q9BQA1 whole entry partner): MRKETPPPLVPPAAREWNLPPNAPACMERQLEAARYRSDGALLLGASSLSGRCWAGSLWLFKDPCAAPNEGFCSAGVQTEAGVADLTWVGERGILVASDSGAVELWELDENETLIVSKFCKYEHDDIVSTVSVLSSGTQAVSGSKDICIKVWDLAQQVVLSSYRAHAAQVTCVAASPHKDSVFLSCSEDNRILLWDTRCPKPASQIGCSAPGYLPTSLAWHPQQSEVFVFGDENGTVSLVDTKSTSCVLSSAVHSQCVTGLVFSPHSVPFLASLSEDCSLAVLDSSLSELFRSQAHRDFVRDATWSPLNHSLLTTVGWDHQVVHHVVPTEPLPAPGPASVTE

PRMT5 [3] = biological target: T1, PRMT5; assay: PRMT5 biochemical IC50 assay with MTA as cofactor; conditions: PRMT5, MTA as cofactor; read-out: MTA IC50
[4] = tested on: HAP1 MTAP-deleted cell line; assay: Viability assay, MTAP-deleted cell line; format: cell-based; conditions: Homo sapiens, read-out: HAP1 MTAP deleted viability
Source text: Table 1 additionally indicates IC50 values in a viability assay for the MTAP-deleted cell line (column 10), indicating the effect of treatment with compound on cell survival.

PRMT5 [5] = biological target: T1, PRMT5; assay: PRMT5 biochemical IC50 assay with no cofactor; conditions: PRMT5, no cofactor
Source text: Table 1 indicates IC50 values (μM) against PRMT5 for exemplary compounds in the presence of SAM as cofactor, with no cofactor, and with MTA as cofactor, respectively (columns 4-6). […] Ki values can be calculated from the IC50 values as described in the Examples section. As detailed in the Examples section, for the assay performed in the presence of SAM, IC50=Ki×1.5 (Ki=IC50/1.5).

[6] = tested on: HAP1 MTAP-deleted cell line; assay: SDMA in-cell western assay, HAP1 MTAP-deleted; format: cell-based; conditions: for IC50: Homo sapiens, HAP1, SDMA in-cell western, HAP1 MTAP-deleted; for MTAP intact/deleted ratio: SDMA in-cell western
Summary of the method: as §1

[7] = HAP1, viability assay, MTAP-deleted cell line
[8] = read-out: HAP1 MTAP deleted IC50
[9] = IC50 ratio HAP1 MTAP-intact / HAP1 MTAP-deleted
[10] = read-out: HAP 1 MTAP deleted IC50
[11] = HAP1, viability IC50, MTAP-deleted cell line
[12] = read-out: No Cofactor/ rel IC50
[13] = IC50 ratio HAP1 MTAP-intact vs HAP1 MTAP-deleted
[14] = HAP1, viability assay, HAP1 MTAP-deleted

IC50 [1] | IC50 (PRMT5 [2]) | IC50 (PRMT5 [3]) | IC50 (PRMT5 [5]; read-out: No Cofactor/rel IC50) | IC50 [6, 8] | IC50 [6, 10] | IC50 (PRMT5 [5]; [12]) | SMILES | IC50 [4, 7] | MTAP intact/deleted ratio [6, 9] | IC50 [4, 11] | MTAP intact/deleted ratio [6, 13] | IC50 [4, 14]
> 1000 nM | 50 to 500 nM | 50 to 500 nM | 50 to 500 nM |  | < 100 nM |  | C[C@H]1CC[C@H](c2ccc(-c3cc[nH]n3)cc2)N(C(=O)C(=O)Nc2cncc(C(N)=O)c2)C1 (single isomer, unassigned) [Compound 626] |  | A (an IC50 ratio greater than or equal to 10 fold) | 1000 to 10000 nM |  | 
> 1000 nM | 50 to 500 nM | < 50 nM | 50 to 500 nM |  | 100 to 1000 nM |  | C[C@@H]1CC[C@@H](c2ccc3[nH]c(=O)ccc3c2)N(C(=O)C(=O)Nc2cncc(C(N)=O)c2)C1 (racemic) [Compound 670, rac-5-(2-((2R,5S)-5-Methyl-2-(2-oxo-1,2-dihydroquinolin-6-yl)piperidin-1-yl)-2-oxoacetamido)nicotinamide] |  | A (an IC50 ratio greater than or equal to 10 fold) | 1000 to 10000 nM |  | 
> 1000 nM | 50 to 500 nM | < 50 nM | 50 to 500 nM | < 100 nM |  |  | C[C@H]1CC[C@H](c2ccc(-c3cncs3)cc2)N(C(=O)C(=O)Nc2cncc(C(N)=O)c2)C1 (single isomer, unassigned) [Compound 821, 5-(2-(5-methyl-2-(4-(thiazol-5-yl)phenyl)piperidin-1-yl)-2-oxoacetamido)nicotinamide] |  | A (an IC50 ratio greater than or equal to 10 fold) |  |  | 1000 to 10000 nM
> 1000 nM | > 500 nM | > 500 nM | > 500 nM | > 1000 nM |  |  | C[C@@H]1CC[C@@H](c2cccc3[nH]ncc23)N(C(=O)C(=O)Nc2cncc(C(N)=O)c2)C1 (single isomer, unassigned) [Compound 883] |  | C (an IC50 ratio of less than 3 fold) |  |  | > 10000 nM
> 1000 nM | < 50 nM | < 50 nM | 50 to 500 nM |  | 100 to 1000 nM |  | C[C@H]1CC[C@H](c2ccc(C(F)(F)F)c(Cl)c2)N(C(=O)C(=O)Nc2cncc(C(N)=O)c2)C1 (single isomer, unassigned) [Compound 655] |  | A (an IC50 ratio greater than or equal to 10 fold) | 1000 to 10000 nM |  | 
> 1000 nM | > 500 nM | 50 to 500 nM | > 500 nM | > 1000 nM |  |  | COc1ncc(NC(=O)C(=O)N2C[C@@H](C)CC[C@@H]2c2csc3ccccc23)cc1C(N)=O (racemic) [Compound 501, 5-[[2-[2-(benzothiophen-3-yl)-5-methyl-1-piperidyl]-2-oxo-acetyl]amino]-2-methoxy-pyridine-3-carboxamide] | > 10000 nM | B (an IC50 ratio greater than or equal to 3 fold but lower than 10 fold) |  |  | 
> 1000 nM | > 500 nM | > 500 nM | > 500 nM | > 1000 nM |  |  | COc1ncc(NC(=O)C(=O)N2C[C@H](C)CC[C@H]2c2cncs2)cc1C(N)=O (single isomer, unassigned) [Compound 514] | > 10000 nM | C (an IC50 ratio of less than 3 fold) |  |  | 
> 1000 nM | 50 to 500 nM | 50 to 500 nM | > 500 nM |  | 100 to 1000 nM |  | C[C@@H]1CC[C@H](c2cc(F)cc(Cl)c2)N(C(=O)C(=O)Nc2cncc(C(N)=O)c2)C1 (single isomer, unassigned) [Compound 625] |  | A (an IC50 ratio greater than or equal to 10 fold) | > 10000 nM |  | 

The remaining lines, values behind:

SMILES | IC50 [1] | IC50 (PRMT5 [2]) | IC50 (PRMT5 [3]) | IC50 (PRMT5 [5]; read-out: No Cofactor/rel IC50) | IC50 [6, 8] | IC50 [6, 10] | IC50 (PRMT5 [5]; [12]) | IC50 [4, 7] | MTAP intact/deleted ratio [6, 9] | IC50 [4, 11] | MTAP intact/deleted ratio [6, 13] | IC50 [4, 14]
C[C@H]1CC[C@H]([C@H]2CC[C@H](O)CC2)N(C(=O)C(=O)Nc2cncc(C(N)=O)c2)C1 (single isomer, unassigned) [Compound 394] | > 1000 nM | 50 to 500 nM | < 50 nM | 50 to 500 nM | 100 to 1000 nM |  |  | 1000 to 10000 nM | A (an IC50 ratio greater than or equal to 10 fold) |  |  | 
Cc1cc(NC(=O)C(=O)N2C[C@@H](C)CC[C@@H]2c2ccc(N3CCN(C)CC3)nc2)cnc1N (single isomer, unassigned) [Compound 1017] | > 1000 nM | > 500 nM | > 500 nM | > 500 nM |  | > 1000 nM |  | < 1000 nM | C (an IC50 ratio of less than 3 fold) |  |  | 
Cc1cc(NC(=O)C(=O)N2C[C@H](C)CC[C@H]2c2ccc3sccc3c2)cnc1N (single isomer, unassigned) [Compound 617] | > 1000 nM | > 500 nM | > 500 nM | > 500 nM |  | 100 to 1000 nM |  |  | A (an IC50 ratio greater than or equal to 10 fold) | > 10000 nM |  | 
Cc1cc(NC(=O)C(=O)N2[C@@H](C)CCC[C@H]2c2ccccc2)cnc1N (racemic) [Compound 112, N-(6-amino-5-methyl-3-pyridyl)-2-[rac-(2R,6R)-2-methyl-6-phenyl-1-piperidyl]-2-oxo-acetamide] | 100 to 1000 nM | 50 to 500 nM | < 50 nM |  |  | < 100 nM | 50 to 500 nM | 1000 to 10000 nM | B (an IC50 ratio greater than or equal to 3 fold but lower than 10 fold) |  |  | 
COc1ncc(NC(=O)C(=O)N2C[C@H](C)CC[C@H]2c2ccc(NC(C)=O)nc2)cc1C(N)=O (single isomer, unassigned) [Compound 930] | > 1000 nM | 50 to 500 nM | < 50 nM | 50 to 500 nM |  | < 100 nM |  | 1000 to 10000 nM | A (an IC50 ratio greater than or equal to 10 fold) |  |  | 
CCc1cc(NC(=O)C(=O)N2C[C@@H](C)CC[C@@H]2c2cccc(OCCN(C)C)c2)cnc1N [Compound 1175, N-(6-amino-5-ethylpyridin-3-yl)-2-((2R,5S)-2-(3-(2-(dimethylamino)ethoxy)phenyl)-5-methylpiperidin-1-yl)-2-oxoacetamide] | 100 to 1000 nM | < 50 nM | < 50 nM | < 50 nM | < 100 nM |  |  | < 1000 nM |  |  | A (an IC50 ratio greater than or equal to 10 fold) | 
Cc1cc(NC(=O)C(=O)N2CC[C@H](N(C)C)C[C@H]2c2ccccc2)cnc1N (racemic) [Compound 906] | > 1000 nM | 50 to 500 nM | 50 to 500 nM | > 500 nM |  | > 1000 nM |  | > 10000 nM | C (an IC50 ratio of less than 3 fold) |  |  | 
COc1ncc(NC(=O)C(=O)N2C[C@@H](C)CC[C@@H]2c2ccc3sc([C@H]4CCN(C)C[C@H]4C)nc3c2)cc1C(N)=O (racemic) [Compound 1185, 2-methoxy-5-[[2-oxo-2-[rac-(2R,5S)-5-methyl-2-[2-[rac-(3S,4S)-1,3-dimethyl-4-piperidyl]-1,3-benzothiazol-5-yl]-1-piperidyl]acetyl]amino]pyridine-3-carboxamide] | < 100 nM | < 50 nM | < 50 nM | < 50 nM | < 100 nM |  |  | < 1000 nM |  |  | A (an IC50 ratio greater than or equal to 10 fold) | 
C[C@@H]1CC[C@@H]([C@H]2CC[C@@H](O)CC2)N(C(=O)C(=O)Nc2cncc(C(N)=O)c2)C1 (single isomer, unassigned) [Compound 393] | > 1000 nM | 50 to 500 nM | 50 to 500 nM | > 500 nM | > 1000 nM |  |  | > 10000 nM | B (an IC50 ratio greater than or equal to 3 fold but lower than 10 fold) |  |  | 
Cc1cc(NC(=O)C(=O)N2C[C@H](C)[C@@H](OC(C)C)C[C@H]2c2ccccc2)cnc1N (single isomer, unassigned) [Compound 1088] | 100 to 1000 nM | 50 to 500 nM | < 50 nM | < 50 nM | < 100 nM |  |  | < 1000 nM |  |  | A (an IC50 ratio greater than or equal to 10 fold) | 
NC(=O)c1cc(NC(=O)C(=O)N2CCCCC2c2ccccc2)cnc1N (stereo not shown) [Compound 126, 2-Amino-5-[[2-oxo-2-(2-phenyl-1-piperidyl)acetyl]amino]pyridine-3-carboxamide] | > 1000 nM | 50 to 500 nM | 50 to 500 nM |  |  | > 1000 nM | > 500 nM | > 10000 nM | B (an IC50 ratio greater than or equal to 3 fold but lower than 10 fold) |  |  | 
